Article PMC7845594, “Novel Immune Modulators Enhance Caenorhabditis elegans Resistance to Multiple Pathogens” (mSphere, 2021)

How the values were obtained:
C. elegans transcriptome = assay: Transcriptome profiling (Affymetrix microarrays), differentially expressed genes; assay type: in vivo, Caenorhabditis elegans; conditions: downregulated genes
Method in brief: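 Wild-type young-adult C. elegans (~6,000 per condition, triplicate) were exposed to each drug at 100 µM or to DMSO for 8 h without pathogen. TRIzol/RNeasy RNA was profiled on Affymetrix arrays. Fold changes were normalized to each gene's mean across conditions and clustered by Euclidean distance with average linkage.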

[1] = test system: P. aeruginosa strain PA14; assay: MIC assay (bacterial growth, no worms); assay type: cell-based, Pseudomonas aeruginosa
Method in brief: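 PA14 was grown in static culture with serial 2-fold compound dilutions, without worms, for 24 h at 37°C. MIC was scored visually by turbidity. At least three biological replicates were run.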

CCN(CC)/N=N/c1ccc(C(=O)O)cc1 [LK35]
Fold Change (C. elegans transcriptome; Gene C32E8.7, Affy_ID 188220_at): 0.2903
Fold Change (C. elegans transcriptome; Gene C33F10.9, Affy_ID 172834_x_at): 0.1897
Fold Change (C. elegans transcriptome; Gene C34F11.3, Affy_ID 189114_at): 0.4428
Fold Change (C. elegans transcriptome; Gene C34F11.4, Affy_ID 172885_x_at): 0.1632
Fold Change (C. elegans transcriptome; Gene C34F11.6, Affy_ID 172896_x_at): 0.1976
Fold Change (C. elegans transcriptome; Gene C35A5.6, Affy_ID 179396_at): 0.1353
Fold Change (C. elegans transcriptome; Gene C35D10.11, Affy_ID 172630_x_at): 0.1209
Fold Change (C. elegans transcriptome; Gene C44C8.6, Affy_ID 189233_s_at): 0.3734
Fold Change (C. elegans transcriptome; Gene C49F5.1, Affy_ID 174812_at): 0.237
Fold Change (C. elegans transcriptome; Gene C50F7.5, Affy_ID 183381_at): 0.3778
Fold Change (C. elegans transcriptome; Gene CTEL54X.1, Affy_ID 185910_at): 0.2757
Fold Change (C. elegans transcriptome; Gene D1086.2, Affy_ID 177478_at): 0.1132
Fold Change (C. elegans transcriptome; Gene D1086.5, Affy_ID 177666_at): 0.2318
Fold Change (C. elegans transcriptome; Gene D2024.7, Affy_ID 187178_s_at): 0.4973
Fold Change (C. elegans transcriptome; Gene D2045.8, Affy_ID 191879_at): 0.4257
Fold Change (C. elegans transcriptome; Gene D2089.3, Affy_ID 178891_at): 0.3977
Fold Change (C. elegans transcriptome; Gene F02D8.4, Affy_ID 189325_at): 0.3853
Fold Change (C. elegans transcriptome; Gene F07A11.5, Affy_ID 188623_at): 0.4237
Fold Change (C. elegans transcriptome; Gene F08B6.4, Affy_ID 171924_x_at): 0.4112
Fold Change (C. elegans transcriptome; Gene F08G2.1, Affy_ID 192280_s_at): 0.181
Fold Change (C. elegans transcriptome; Gene F53A9.8, Affy_ID 180612_s_at): 0.2385
Fold Change (C. elegans transcriptome; Gene F53F4.13, Affy_ID 182491_at): 0.306
Fold Change (C. elegans transcriptome; Gene F54F11.2, Affy_ID 191753_at): 0.2877
Fold Change (C. elegans transcriptome; Gene F55F3.2, Affy_ID 189534_at): 0.2425
Fold Change (C. elegans transcriptome; Gene F55G1.3, Affy_ID 172702_x_at): 0.3727
Fold Change (C. elegans transcriptome; Gene F58A4.7, Affy_ID 171841_x_at): 0.2717
Fold Change (C. elegans transcriptome; Gene F58A6.8, Affy_ID 172889_x_at): 0.1742
Fold Change (C. elegans transcriptome; Gene F58A6.9, Affy_ID 172743_x_at): 0.2732
Fold Change (C. elegans transcriptome; Gene F58B3.1, Affy_ID 178236_s_at): 0.3338
Fold Change (C. elegans transcriptome; Gene F58G1.4, Affy_ID 177978_at): 0.2272
Fold Change (C. elegans transcriptome; Gene F59B2.5, Affy_ID 187071_at): 0.4863
Fold Change (C. elegans transcriptome; Gene H02I12.6, Affy_ID 172891_x_at): 0.4113
Fold Change (C. elegans transcriptome; Gene H12C20.3, Affy_ID 192782_at): 0.1769
Fold Change (C. elegans transcriptome; Gene H12D21.1, Affy_ID 172431_x_at): 0.176
Fold Change (C. elegans transcriptome; Gene H36L18.2, Affy_ID 179787_at): 0.4486
Fold Change (C. elegans transcriptome; Gene K02C4.2, Affy_ID 178299_at): 0.2893
Fold Change (C. elegans transcriptome; Gene K02D7.1, Affy_ID 189003_s_at): 0.4157
Fold Change (C. elegans transcriptome; Gene K03H1.10, Affy_ID 179875_at): 0.3898
Fold Change (C. elegans transcriptome; Gene K03H6.2, Affy_ID 183309_at): 0.3456
Fold Change (C. elegans transcriptome; Gene K05F1.2, Affy_ID 172815_x_at): 0.2488
Fold Change (C. elegans transcriptome; Gene K05F1.7, Affy_ID 172904_x_at): 0.1812
Fold Change (C. elegans transcriptome; Gene K06C4.12, Affy_ID 172685_x_at): 0.3916
Fold Change (C. elegans transcriptome; Gene K07E8.3, Affy_ID 180256_at): 0.04574
Fold Change (C. elegans transcriptome; Gene K07F5.2, Affy_ID 172852_x_at): 0.1696
Fold Change (C. elegans transcriptome; Gene K07F5.3, Affy_ID 172907_x_at): 0.1824
Fold Change (C. elegans transcriptome; Gene K07F5.5, Affy_ID 172245_x_at): 0.3189
Fold Change (C. elegans transcriptome; Gene K08F4.8, Affy_ID 172934_x_at): 0.1666
Fold Change (C. elegans transcriptome; Gene K08F8.4, Affy_ID 193649_s_at): 0.4028
Fold Change (C. elegans transcriptome; Gene K10F12.4, Affy_ID 185815_at): 0.3079
Fold Change (C. elegans transcriptome; Gene M01D7.5, Affy_ID 173242_s_at): 0.2324
Fold Change (C. elegans transcriptome; Gene M05D6.7, Affy_ID 193914_at): 0.3025
Fold Change (C. elegans transcriptome; Gene M6.1, Affy_ID 193073_at): 0.2608
Fold Change (C. elegans transcriptome; Gene M18.1, Affy_ID 173632_s_at): 0.1786
Fold Change (C. elegans transcriptome; Gene M163.1, Affy_ID 177298_at): 0.4161
Fold Change (C. elegans transcriptome; Gene R01E6.3, Affy_ID 189628_at): 0.3449
Fold Change (C. elegans transcriptome; Gene R03E9.1, Affy_ID 193723_s_at): 0.1079
Fold Change (C. elegans transcriptome; Gene R04B5.9, Affy_ID 191440_at): 0.2481
Fold Change (C. elegans transcriptome; Gene R05F9.3, Affy_ID 172725_x_at): 0.3857
Fold Change (C. elegans transcriptome; Gene R05F9.8, Affy_ID 172724_x_at): 0.1853
Fold Change (C. elegans transcriptome; Gene R05G6.10, Affy_ID 192058_at): 0.3689
Fold Change (C. elegans transcriptome; Gene R07B1.3, Affy_ID 190822_s_at): 0.3753
Fold Change (C. elegans transcriptome; Gene R12C12.1, Affy_ID 190616_at): 0.3455
Fold Change (C. elegans transcriptome; Gene R12E2.9, Affy_ID 180698_s_at): 0.2329
Fold Change (C. elegans transcriptome; Gene R52.3, Affy_ID 177369_at): 0.433
Fold Change (C. elegans transcriptome; Gene T01C3.4, Affy_ID 188106_at): 0.01178
Fold Change (C. elegans transcriptome; Gene T01D3.6, Affy_ID 194060_s_at): 0.3484
Fold Change (C. elegans transcriptome; Gene T02B11.3, Affy_ID 174051_s_at): 0.4315
Fold Change (C. elegans transcriptome; Gene T03D8.2, Affy_ID 190280_at): 0.4443
Fold Change (C. elegans transcriptome; Gene T07C4.4, Affy_ID 178149_s_at): 0.4269
Fold Change (C. elegans transcriptome; Gene T07G12.5, Affy_ID 188496_s_at): 0.1018
Fold Change (C. elegans transcriptome; Gene T08B1.6, Affy_ID 192296_at): 0.1305
Fold Change (C. elegans transcriptome; Gene T08B2.12, Affy_ID 184685_s_at): 0.1145
Fold Change (C. elegans transcriptome; Gene T09F5.9, Affy_ID 188947_at): 0.2413
Fold Change (C. elegans transcriptome; Gene T15B7.9, Affy_ID 182858_at): 0.3683
Fold Change (C. elegans transcriptome; Gene T19H5.4, Affy_ID 186755_s_at): 0.3412
Fold Change (C. elegans transcriptome; Gene T20B3.2, Affy_ID 188278_s_at): 0.3943
Fold Change (C. elegans transcriptome; Gene T20D4.11, Affy_ID 184438_at): 0.05764
Fold Change (C. elegans transcriptome; Gene T20G5.7, Affy_ID 172218_x_at): 0.3082
Fold Change (C. elegans transcriptome; Gene T22H2.6, Affy_ID 180962_s_at): 0.3753
MIC ([1]; Pseudomonas aeruginosa, P. aeruginosa PA14, LB media, static culture, no worms, read-out: MIC): > 908 µM
MIC / EC ([1]; ratio of MIC to EC, P. aeruginosa PA14): > 52.4
